pIC50: −log10 of the molar value.
Key:
HePTP = target: T1, HePTP (Homo sapiens, UniProt P35236); assay: PTP selectivity profiling; assay type: biochemical
T1 sequence (P35236 1-360): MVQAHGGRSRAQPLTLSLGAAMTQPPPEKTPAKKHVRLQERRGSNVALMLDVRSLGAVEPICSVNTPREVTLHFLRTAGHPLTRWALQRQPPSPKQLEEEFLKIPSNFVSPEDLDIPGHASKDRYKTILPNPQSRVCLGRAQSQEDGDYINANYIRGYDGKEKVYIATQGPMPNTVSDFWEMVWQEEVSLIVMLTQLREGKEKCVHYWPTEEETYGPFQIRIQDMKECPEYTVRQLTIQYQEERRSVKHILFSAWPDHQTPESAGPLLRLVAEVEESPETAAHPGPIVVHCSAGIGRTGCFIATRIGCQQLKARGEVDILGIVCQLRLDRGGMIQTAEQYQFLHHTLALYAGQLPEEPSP

human platelets = assay type: cell-based
PTP1B = target: T2, PTP1B (Homo sapiens, UniProt P18031); assay: PTP selectivity profiling; assay type: biochemical
T2 sequence (P18031 1-435): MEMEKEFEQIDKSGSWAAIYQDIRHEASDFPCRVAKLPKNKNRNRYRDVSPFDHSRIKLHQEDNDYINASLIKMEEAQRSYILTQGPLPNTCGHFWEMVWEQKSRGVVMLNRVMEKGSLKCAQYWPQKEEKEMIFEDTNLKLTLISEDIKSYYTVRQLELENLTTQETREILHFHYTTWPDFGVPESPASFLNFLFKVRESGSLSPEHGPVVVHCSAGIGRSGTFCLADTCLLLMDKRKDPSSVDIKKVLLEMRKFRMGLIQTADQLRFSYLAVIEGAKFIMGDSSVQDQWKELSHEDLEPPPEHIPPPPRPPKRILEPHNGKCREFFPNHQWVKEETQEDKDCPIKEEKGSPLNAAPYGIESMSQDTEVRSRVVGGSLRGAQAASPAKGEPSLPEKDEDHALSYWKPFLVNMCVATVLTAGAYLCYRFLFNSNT

LYP = target: T3, LYP (Homo sapiens, UniProt Q9Y2R2); assay: PTP selectivity profiling; assay type: biochemical
T3 sequence (Q9Y2R2 1-807): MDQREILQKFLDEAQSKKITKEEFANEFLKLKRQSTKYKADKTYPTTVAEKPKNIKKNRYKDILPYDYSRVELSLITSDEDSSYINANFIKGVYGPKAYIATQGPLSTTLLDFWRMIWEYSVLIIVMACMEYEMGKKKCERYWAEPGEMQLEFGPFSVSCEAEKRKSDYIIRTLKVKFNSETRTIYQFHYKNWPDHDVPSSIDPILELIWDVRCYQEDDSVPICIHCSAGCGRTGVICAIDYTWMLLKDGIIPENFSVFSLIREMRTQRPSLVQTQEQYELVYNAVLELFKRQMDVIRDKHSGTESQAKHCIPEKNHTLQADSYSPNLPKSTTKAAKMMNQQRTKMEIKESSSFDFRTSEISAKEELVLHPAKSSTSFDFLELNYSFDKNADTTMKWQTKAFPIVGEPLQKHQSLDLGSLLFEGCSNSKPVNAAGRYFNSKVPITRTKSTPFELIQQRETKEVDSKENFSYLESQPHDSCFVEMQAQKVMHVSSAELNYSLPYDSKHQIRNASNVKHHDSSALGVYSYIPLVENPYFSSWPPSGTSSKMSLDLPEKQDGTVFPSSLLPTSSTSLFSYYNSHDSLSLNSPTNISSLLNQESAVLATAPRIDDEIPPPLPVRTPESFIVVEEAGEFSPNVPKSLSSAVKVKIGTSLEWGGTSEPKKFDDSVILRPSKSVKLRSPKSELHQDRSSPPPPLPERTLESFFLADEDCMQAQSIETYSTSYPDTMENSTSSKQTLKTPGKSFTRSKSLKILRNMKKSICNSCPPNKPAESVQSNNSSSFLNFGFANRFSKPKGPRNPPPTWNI

DUSP22 = target: T4, DUSP22 (Homo sapiens, UniProt Q9NRW4); assay: PTP selectivity profiling; assay type: biochemical
T4 sequence (Q9NRW4 1-184): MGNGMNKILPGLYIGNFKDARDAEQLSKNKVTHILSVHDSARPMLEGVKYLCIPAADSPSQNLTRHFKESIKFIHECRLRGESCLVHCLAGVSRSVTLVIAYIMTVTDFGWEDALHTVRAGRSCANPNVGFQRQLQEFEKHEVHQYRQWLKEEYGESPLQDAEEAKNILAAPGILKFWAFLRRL

CD45 = target: T5, CD45 (Homo sapiens, UniProt P08575); assay: PTP selectivity profiling; assay type: biochemical
T5 sequence (P08575 26-1306): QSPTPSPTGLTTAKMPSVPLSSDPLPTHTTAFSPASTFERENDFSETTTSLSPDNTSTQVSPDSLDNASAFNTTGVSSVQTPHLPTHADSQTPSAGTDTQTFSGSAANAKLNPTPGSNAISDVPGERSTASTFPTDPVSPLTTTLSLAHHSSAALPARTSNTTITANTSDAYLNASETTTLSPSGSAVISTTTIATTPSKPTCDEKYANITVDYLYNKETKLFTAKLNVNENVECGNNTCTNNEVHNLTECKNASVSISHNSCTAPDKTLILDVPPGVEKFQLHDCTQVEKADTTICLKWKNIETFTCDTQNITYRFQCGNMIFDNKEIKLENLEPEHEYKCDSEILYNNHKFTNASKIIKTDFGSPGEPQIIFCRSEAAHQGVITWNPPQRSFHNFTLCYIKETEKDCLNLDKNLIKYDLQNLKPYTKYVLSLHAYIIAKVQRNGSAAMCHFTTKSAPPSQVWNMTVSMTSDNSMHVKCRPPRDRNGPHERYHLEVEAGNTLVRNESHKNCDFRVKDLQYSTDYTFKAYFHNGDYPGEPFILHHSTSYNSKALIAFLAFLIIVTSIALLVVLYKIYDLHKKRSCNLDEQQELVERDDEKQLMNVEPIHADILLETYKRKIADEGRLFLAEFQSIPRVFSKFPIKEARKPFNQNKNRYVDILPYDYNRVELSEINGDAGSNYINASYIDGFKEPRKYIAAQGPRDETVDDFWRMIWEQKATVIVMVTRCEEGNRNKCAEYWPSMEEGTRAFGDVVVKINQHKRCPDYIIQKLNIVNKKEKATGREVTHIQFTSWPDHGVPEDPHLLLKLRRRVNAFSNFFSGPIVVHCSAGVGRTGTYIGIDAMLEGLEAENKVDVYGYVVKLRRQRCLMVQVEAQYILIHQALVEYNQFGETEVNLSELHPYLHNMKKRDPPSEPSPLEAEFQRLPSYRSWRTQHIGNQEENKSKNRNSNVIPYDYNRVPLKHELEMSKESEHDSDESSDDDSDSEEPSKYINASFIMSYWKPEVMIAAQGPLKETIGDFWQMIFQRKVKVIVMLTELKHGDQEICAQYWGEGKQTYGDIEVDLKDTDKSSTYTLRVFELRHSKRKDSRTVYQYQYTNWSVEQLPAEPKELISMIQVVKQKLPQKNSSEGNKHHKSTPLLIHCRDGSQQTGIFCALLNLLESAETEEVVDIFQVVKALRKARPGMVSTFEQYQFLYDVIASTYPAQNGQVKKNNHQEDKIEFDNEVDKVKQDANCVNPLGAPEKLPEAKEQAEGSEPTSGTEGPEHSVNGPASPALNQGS

STEP = target: T6, STEP (Homo sapiens, UniProt P54829); assay: PTP selectivity profiling; assay type: biochemical
T6 sequence (P54829 1-565): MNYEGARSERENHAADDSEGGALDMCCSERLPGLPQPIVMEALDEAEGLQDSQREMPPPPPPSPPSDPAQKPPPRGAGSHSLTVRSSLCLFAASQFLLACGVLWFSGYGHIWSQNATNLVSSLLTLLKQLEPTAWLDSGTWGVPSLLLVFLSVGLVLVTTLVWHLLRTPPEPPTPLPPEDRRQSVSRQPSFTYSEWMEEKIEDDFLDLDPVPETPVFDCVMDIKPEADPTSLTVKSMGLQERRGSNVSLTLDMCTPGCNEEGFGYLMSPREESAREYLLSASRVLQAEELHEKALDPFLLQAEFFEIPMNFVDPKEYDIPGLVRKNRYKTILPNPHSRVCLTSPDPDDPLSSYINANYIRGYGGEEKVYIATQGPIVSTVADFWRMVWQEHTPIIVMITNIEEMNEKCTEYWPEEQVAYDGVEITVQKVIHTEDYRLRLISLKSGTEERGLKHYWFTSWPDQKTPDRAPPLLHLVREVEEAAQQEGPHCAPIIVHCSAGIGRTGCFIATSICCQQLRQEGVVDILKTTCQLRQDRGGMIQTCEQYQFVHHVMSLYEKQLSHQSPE

DUSP3 = DUSP3 (Homo sapiens, UniProt P51452); assay: DUSP3 phosphatase inhibition assay; assay type: biochemical
Chain of DUSP3 (P51452 whole entry): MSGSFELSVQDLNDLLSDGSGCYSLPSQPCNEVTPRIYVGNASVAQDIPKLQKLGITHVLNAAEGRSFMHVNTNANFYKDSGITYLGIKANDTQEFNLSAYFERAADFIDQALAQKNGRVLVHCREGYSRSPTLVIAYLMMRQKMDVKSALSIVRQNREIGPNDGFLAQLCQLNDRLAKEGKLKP

LAR = LAR (Homo sapiens, UniProt P10586); assay: PTP selectivity profiling; assay type: biochemical
Chain of LAR (P10586 30-1907, species assumed): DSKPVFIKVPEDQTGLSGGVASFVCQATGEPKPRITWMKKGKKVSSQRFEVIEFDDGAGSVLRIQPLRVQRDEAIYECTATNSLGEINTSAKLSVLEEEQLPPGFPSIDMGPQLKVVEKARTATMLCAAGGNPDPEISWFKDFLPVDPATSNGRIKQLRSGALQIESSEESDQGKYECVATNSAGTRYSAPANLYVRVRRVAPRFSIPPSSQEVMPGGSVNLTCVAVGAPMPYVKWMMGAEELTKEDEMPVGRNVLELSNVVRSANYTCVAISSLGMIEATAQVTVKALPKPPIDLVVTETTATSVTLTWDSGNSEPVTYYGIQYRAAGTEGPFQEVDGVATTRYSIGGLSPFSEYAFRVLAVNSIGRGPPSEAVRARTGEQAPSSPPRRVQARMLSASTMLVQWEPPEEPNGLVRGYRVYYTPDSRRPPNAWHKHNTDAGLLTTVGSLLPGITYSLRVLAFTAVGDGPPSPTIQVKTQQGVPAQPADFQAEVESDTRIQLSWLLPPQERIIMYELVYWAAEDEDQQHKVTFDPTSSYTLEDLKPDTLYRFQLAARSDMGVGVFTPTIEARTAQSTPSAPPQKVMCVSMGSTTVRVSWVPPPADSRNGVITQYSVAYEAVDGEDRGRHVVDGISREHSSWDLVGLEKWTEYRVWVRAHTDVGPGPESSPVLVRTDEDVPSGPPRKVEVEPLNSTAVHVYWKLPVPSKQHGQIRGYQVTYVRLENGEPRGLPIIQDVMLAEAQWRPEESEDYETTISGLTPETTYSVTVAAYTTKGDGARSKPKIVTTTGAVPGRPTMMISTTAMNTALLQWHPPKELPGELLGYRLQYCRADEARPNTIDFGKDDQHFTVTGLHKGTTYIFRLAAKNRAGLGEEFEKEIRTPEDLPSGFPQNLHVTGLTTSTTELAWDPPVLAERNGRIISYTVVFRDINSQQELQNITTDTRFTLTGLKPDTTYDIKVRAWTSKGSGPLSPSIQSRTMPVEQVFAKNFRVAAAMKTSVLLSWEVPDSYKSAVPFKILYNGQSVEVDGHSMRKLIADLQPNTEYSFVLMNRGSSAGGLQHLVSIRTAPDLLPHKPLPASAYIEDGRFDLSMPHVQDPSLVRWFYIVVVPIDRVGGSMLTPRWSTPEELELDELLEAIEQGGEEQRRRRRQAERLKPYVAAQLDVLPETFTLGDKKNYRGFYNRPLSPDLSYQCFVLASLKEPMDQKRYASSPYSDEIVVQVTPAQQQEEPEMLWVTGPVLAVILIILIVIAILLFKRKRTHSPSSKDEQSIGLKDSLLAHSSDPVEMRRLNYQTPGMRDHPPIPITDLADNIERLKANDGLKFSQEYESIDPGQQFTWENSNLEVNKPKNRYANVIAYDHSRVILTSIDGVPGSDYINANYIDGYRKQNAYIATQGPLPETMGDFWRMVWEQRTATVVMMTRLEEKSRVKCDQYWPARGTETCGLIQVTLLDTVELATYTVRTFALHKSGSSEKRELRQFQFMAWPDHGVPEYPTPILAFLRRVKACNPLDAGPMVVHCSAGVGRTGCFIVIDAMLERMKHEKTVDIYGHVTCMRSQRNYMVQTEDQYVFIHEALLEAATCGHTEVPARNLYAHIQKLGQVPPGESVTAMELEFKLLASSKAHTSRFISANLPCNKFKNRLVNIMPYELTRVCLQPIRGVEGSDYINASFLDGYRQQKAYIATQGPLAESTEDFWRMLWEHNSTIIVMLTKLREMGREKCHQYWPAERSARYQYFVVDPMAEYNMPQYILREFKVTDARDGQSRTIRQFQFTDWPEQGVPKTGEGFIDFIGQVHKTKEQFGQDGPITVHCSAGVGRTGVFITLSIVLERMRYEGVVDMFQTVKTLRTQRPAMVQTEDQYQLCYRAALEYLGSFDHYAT

DUSP6 = target: T7, DUSP6 (Homo sapiens, UniProt Q16828); assay: PTP selectivity profiling; assay type: biochemical
T7 sequence (Q16828 1-381): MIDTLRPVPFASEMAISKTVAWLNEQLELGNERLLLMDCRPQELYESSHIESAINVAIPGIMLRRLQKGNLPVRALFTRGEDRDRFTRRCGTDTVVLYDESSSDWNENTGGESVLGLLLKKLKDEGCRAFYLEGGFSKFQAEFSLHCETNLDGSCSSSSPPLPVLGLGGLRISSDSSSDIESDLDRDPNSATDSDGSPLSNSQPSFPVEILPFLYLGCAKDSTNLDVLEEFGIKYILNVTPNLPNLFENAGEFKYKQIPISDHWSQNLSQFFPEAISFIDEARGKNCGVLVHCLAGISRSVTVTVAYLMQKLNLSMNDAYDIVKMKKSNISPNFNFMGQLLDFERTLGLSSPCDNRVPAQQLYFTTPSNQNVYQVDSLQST

[1] = test system: DUSP3-deficient platelets; assay: Platelet aggregation in washed platelets from Dusp3-KO mice; settings: Dusp3-KO mouse washed platelets, 3.7 μM, pre-incubated 30 min
TCPTP = target: T8, TCPTP (Homo sapiens, UniProt P17706); assay: PTP selectivity profiling; assay type: biochemical
T8 sequence (P17706 1-415): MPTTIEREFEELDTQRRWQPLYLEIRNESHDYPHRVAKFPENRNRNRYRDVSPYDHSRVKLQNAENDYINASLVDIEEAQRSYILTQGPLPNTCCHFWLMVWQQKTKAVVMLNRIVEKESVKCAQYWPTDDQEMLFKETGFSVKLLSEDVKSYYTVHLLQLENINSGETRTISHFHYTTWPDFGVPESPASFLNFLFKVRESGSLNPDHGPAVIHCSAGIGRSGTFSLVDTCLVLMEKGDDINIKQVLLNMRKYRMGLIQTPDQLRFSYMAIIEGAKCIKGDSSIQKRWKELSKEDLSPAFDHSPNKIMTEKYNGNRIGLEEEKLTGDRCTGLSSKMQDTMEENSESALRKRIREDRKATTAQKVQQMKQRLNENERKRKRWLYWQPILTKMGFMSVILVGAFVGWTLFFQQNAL

PTP-SL = assay: PTP selectivity profiling; assay type: biochemical
[2] = DUSP3, HTS hits, text (Supplemental Table S2)

pIC50 (DUSP3; [2]) | SMILES | pIC50 (HePTP) | Tyrosine phosphorylation of immunoprecipitated Syk and PLCγ2 (human platelets; human platelets, CRP- or rhodocytin-activated) | Global tyrosine phosphorylation (pY) of ~70-kDa band (human platelets; total lysates of human platelets after stimulation with CRP or rhodocytin) | pIC50 (PTP1B) | pIC50 (LYP) | selectivity for DUSP3 over DUSP22 (DUSP22; DUSP3 over DUSP22) [fold] | pIC50 (DUSP22; DUSP22) | pIC50 (CD45) | pIC50 (STEP) | pIC50 (DUSP3; DUSP3) | pIC50 (LAR) | pIC50 (DUSP6) | Effect on aggregation of DUSP3-deficient platelets [1] | pIC50 (TCPTP) | pIC50 (PTP-SL)
– | COc1ccc(-c2nnc(Nc3nc4c(F)cccc4s3)o2)cc1 [MLS-0437605] | 4.42 | reduced | caused a decrease in pY | < 4.00 | 4.31 | 7 | 4.59 | < 4.00 | < 4.00 | 5.43 | < 4.00 | < 4.00 | only minimally affected aggregation | 4.26 | 4.89
5.57 | COc1ccc(-c2nnc(Nc3nc4c(OC)cccc4s3)o2)cc1 [MLS-0049585] | – | – | – | – | – | – | – | – | – | – | – | – | – | – | –
6.43 | COc1cc(C(=S)N2CCCCC2)ccc1O [MLS-0103602] | – | – | – | – | – | – | – | – | – | – | – | – | – | – | –

Source: publication PMC4334727 (Circulation, 2014)
